# Entries after “also recorded” stand apart in the source; their conditions may differ.
# Tests used:
# Assay type in all cases: cell-based, human
# PGI2S gene expression = assay: Real time RT-PCR of PGI2S gene expression in HPMVEC; conditions: for PGI2S gene (mRNA) expression after aldehyde exposure: HPMVEC, 1 and 10 μM aldehyde, about 24 hours after exposure; for effect of pre-incubation on PGI2S gene expression in CSE-exposed cells: four hour pre-incubation (SOD mimetic 100 U/ml, catalase 100 U/ml, DPI 0.1 μM, L-NAME 1 mM), 1% CSE for 4 hours
# Procedure: (§1) Human pulmonary microvascular endothelial cells (HPMVEC, passage 4-6) and EGM-2-MV medium (containing 5% FBS, hydrocortisone, human recombinant VEGF, recombinant human fibroblast growth factor-B, recombinant insulin-like growth factor-1, human recombinant epidermal growth factor, ascorbic acid, gentamycin and amphotericin-B) were purchased from Clonetics Corporation (Baltimore, Md., USA). Cells were grown to confluency at 37° C. in a humidified atmosphere of 21% O2, 5% CO2. N-acetyl-L-cysteine (NAC) and diphenyleneiodonium chloride (DPI) were obtained from Sigma-Aldrich (St. Louis, Mo., USA). N-nitro-l-arginine methyl ester (L-NAME) was obtained from Cayman Chemical (Ann Arbor, Mich.). Z-Asp2,6-dichlorobenzoylmethylketone (Caspase Family Inhibitor IV) was obtained from Alexis Biochemicals (San Diego, Calif., USA). Both an SOD mimetic and catalase were obtained from National Jewish Medical Center. Acrolein, an α,β-unsaturated aldehyde, and several […] aldehydes (acetaldehyde, crotonaldehyde, proprionaldehyde (i.e., propanal) were purchased from Sigma Aldrich (St. Louis, Mo., USA)
# (§2) Cigarette smoke extract was prepared by a modification of a previously published method, e.g., Carp et al., Am. Rev. Respir. Dis., 1978, 118, 617-621. Briefly, one non-filtered Camel cigarette (R.J. Reynolds, Winston-Salem, N.C.) was passed through 10 mL of Phosphate-buffered saline (PBS) using a vacuum pump. This 100% CSE was adjusted to pH 7.4 and filtered through a […] pore filter (Fisher, Hampton, N.H., USA) and the CSE was diluted to the appropriate concentration and added to endothelial cells within 10 min of preparation.
# (§3) Total RNA was extracted using the RNeasy Mini Kit (Qiagen, Valencia, Calif.), following the manufacturer's instructions. 1 μg of RNA was reverse-transcribed using random primer and MultiScribe RT (High-Capacity cDNA Archive Kit, Applied Biosystems, Foster City, Calif.). Assay-on-demand gene expression probe for PGI2S: Hs00168766, COX-1:Hs00377721, COX-2:Hs00153133, cPLA2:Hs00233352, and β-actin: Hs999999903 were obtained from Applied Biosystems (Foster City, Calif.) PCR reactions were performed in 20 μL volumes containing 9 μL of cDNA, 10 μL of TaqMan Master Mix (Applied Biosystems) and 1 μL of assay-on-demand primer and probe. Real-time PCR was conducted on the Applied Biosystems GeneAmp 5700 sequence Detection System and signal was detected by the GeneAmp 5700 SDS software (Applied Biosystems). All values were reported relative to β-Actin expression.
# COX-2 gene expression = assay: Real time RT-PCR of COX-2 gene expression in HPMVEC; conditions: for COX-2 gene expression after aldehyde exposure: HPMVEC, 1 and 10 μM acrolein; for effect of pre-incubation on COX-2 gene expression in CSE-exposed cells: four hour pre-incubation (SOD mimetic 100 U/ml, catalase 100 U/ml, DPI 0.1 μM, L-NAME 1 mM), 1% CSE for 4 hours
# Procedure: as §1, §2, §3
# PGI2S protein expression = assay: Western blotting of PGI2S protein expression in HPMVEC; conditions: about 48 hours post exposure
# Procedure: as §1
# 20 μg of protein was separated on NuPAGE Novex 4-12% Bis-Tris Gel (Invitrogen Carlsbad, Calif., USA) and transferred to a polyvinylidene fluoride (PVDF) membrane (Invitrogen, Carlsbad, Calif., USA). The membrane was blocked with 5% nonfat dry milk in PBS containing 0.05% Tween (PBST) for 1 hour. […]
# HPMVEC = assay: Caspase 3/7 assay of apoptosis in HPMVEC exposed to CSE; conditions: HPMVEC pre-treated with Iloprost 1 μM and 10 μM for 30 minutes prior to CSE exposure
# Procedure: Human pulmonary microvascular endothelial cells (HPMVEC, passage 4-6) and EGM-2-MV medium (containing 5% FBS, hydrocortisone, human recombinant VEGF, recombinant human fibroblast growth factor-B, recombinant insulin-like growth factor-1, human recombinant epidermal growth factor, ascorbic acid, gentamycin and amphotericin-B) were purchased from Clonetics Corporation (Baltimore, Md., USA). Cells were grown to confluency at 37° C. in a humidified atmosphere of 21% O2, 5% CO2. N-acetyl-L-cysteine (NAC) and diphenyleneiodonium chloride (DPI) were obtained from Sigma-Aldrich (St. Louis, Mo., USA). N-nitro-l-arginine methyl ester (L-NAME) was obtained from Cayman Chemical (Ann Arbor, Mich.). […]
# Immunohistochemical staining on both PGI2S transgenic mice and wild type littermates was conducted using similar protocols to the above, however, cleaved caspase 3 antibody (Cell Signaling technology Danvers, Mass.) was used to assess apoptosis. In a blinded fashion, small, medium and large pulmonary arteries were scored for endothelial caspase staining. In-vitro, the rate of apoptosis in primary human microvascular endothelial cells was analyzed by the Vybrant Apoptosis Assay Kit from Molecular Probes Inc. (Eugene, Oreg., USA) according to the manufacturer's protocol. […] In addition, apoptosis of HPMVEC was assessed by Caspase 3/7 assay according to the protocol provided (Promega Madison, Wis.).
compound,measurement,setting,value
C=CC=O [Acrolein],PGI2S gene (mRNA) expression after aldehyde exposure,PGI2S gene expression,reduction in PGI2S gene expression
same,COX-2 gene expression after aldehyde exposure,COX-2 gene expression,trend toward induction
same,COX-2 gene expression after aldehyde exposure,COX-2 gene expression; listed as acrolein,No significant change
same,PGI2S protein expression after aldehyde exposure,PGI2S protein expression,suppressed
"c1ccc2c(c1)[I+]c1ccccc1-2 [DPI, diphenyleneiodonium chloride]",effect of pre-incubation on PGI2S gene expression in CSE-exposed cells,PGI2S gene expression,did not significantly affect
same,effect of pre-incubation on COX-2 gene expression in CSE-exposed cells,COX-2 gene expression,did not significantly affect
CC#CCC(C)[C@H](O)/C=C/[C@@H]1[C@H]2C/C(=C/CCCC(=O)O)C[C@H]2C[C@H]1O (stereo partly drawn) [Iloprost],endothelial apoptosis as measured by caspase 3/7 activity,HPMVEC,significant reduction; also recorded: at least partial protective anti-apoptotic effect
"CC(=O)N[C@@H](CS)C(=O)O [NAC, N-acetyl-L-cysteine]",prevention of down-regulation of PGI2S gene expression by 1% CSE,"PGI2S gene expression; HPMVEC pre-incubated four hours with 1 mM NAC, then 1% CSE, RT-PCR at four hours and 24 hours",no significant prevention
same,effect on CSE mediated induction of COX-2 gene expression,"COX-2 gene expression; HPMVEC pre-incubated four hours with 1 mM NAC, then 1% CSE, P<0.05",significantly reduce or prevent
CC=O [acetaldehyde],PGI2S gene (mRNA) expression after aldehyde exposure,PGI2S gene expression,did not result in suppression
C/C=C/C=O [crotonaldehyde],PGI2S gene (mRNA) expression after aldehyde exposure,PGI2S gene expression,did not result in suppression
CCC=O [propionaldehyde],PGI2S gene (mRNA) expression after aldehyde exposure,PGI2S gene expression,did not result in suppression
same,PGI2S gene (mRNA) expression after aldehyde exposure,PGI2S gene expression; listed as Propionaldehyde,statistically significant induction
catalase,effect of pre-incubation on PGI2S gene expression in CSE-exposed cells,PGI2S gene expression,did not significantly affect
same,effect of pre-incubation on COX-2 gene expression in CSE-exposed cells,COX-2 gene expression,did not significantly affect

# From patent US20100048693A1, “Treatment of COPD” (The Regents of the University of Colorado, A Body Corporate, priority 2006, published 2010)
